Source: patent US10878939B2, “Methods and compositions for personalized pain management” (Children's Hospital Medical Center, priority 2014, dated 2020)

System: children undergoing tonsillectomy
Test: Analgesic effectiveness outcomes by sex and morphine dose (Example 6)
[1] = F, intra-op morphine >0.2 mg/kg
[2] = F, intra-op morphine >0.1-0.2 mg/kg
[3] = F, intra-op morphine ≤0.1 mg/kg
[4] = M, intra-op morphine >0.2 mg/kg
[5] = M, intra-op morphine >0.1-0.2 mg/kg
[6] = M, intra-op morphine ≤0.1 mg/kg

## CN1CC[C@]23c4c5ccc(O)c4O[C@H]2[C@@H](O)C=C[C@H]3[C@H]1C5 [morphine]
F, All
  Analgesic intervention need in PACU, number of cases: 67
  Analgesic intervention need in PACU, proportion: (31%)
  Maximum FLACC pain score, median: 2
  Maximum NRS pain score, median: 6
  Number of analgesic interventions, median: 1
  Post-operative morphine, mean ± SD: 0.09 ± 0.05 mg/kg
  Prolonged PACU stay due to pain, number of cases: 37
  Prolonged PACU stay due to pain, proportion: (17%)
F, OSA No
  Analgesic intervention need in PACU, number of cases: 35
  Analgesic intervention need in PACU, proportion: (28%)
  Maximum FLACC pain score, median: 2
  Maximum NRS pain score, median: 6
  Number of analgesic interventions, median: 1
  Post-operative morphine, mean ± SD: 0.08 ± 0.04 mg/kg
  Prolonged PACU stay due to pain, number of cases: 21
  Prolonged PACU stay due to pain, proportion: (17%)
F, OSA Yes
  Analgesic intervention need in PACU, number of cases: 32
  Analgesic intervention need in PACU, proportion: (34%)
  Maximum FLACC pain score, median: 2
  Maximum NRS pain score, median: 5
  Number of analgesic interventions, median: 1
  Post-operative morphine, mean ± SD: 0.09 ± 0.06 mg/kg
  Prolonged PACU stay due to pain, number of cases: 16
  Prolonged PACU stay due to pain, proportion: (17%)
[1]
  Analgesic intervention need in PACU, number of cases (%): 22 (51)
  Maximum FLACC pain score, median (IQR): 1 (0-5)
  Maximum NRS pain score, median (IQR): 6 (3-9)
  Number of analgesic interventions, median (IQR): 1 (0-1)
  Post-operative morphine, mean ± SD: 0.10 ± 0.05 mg/Kf
  Prolonged PACU stay due to pain, number of cases (%): 12 (28)
[2]
  Analgesic intervention need in PACU, number of cases (%): 40 (61)
  Maximum FLACC pain score, median (IQR): 2 (0-5)
  Maximum NRS pain score, median (IQR): 5 (2-8)
  Number of analgesic interventions, median (IQR): 1 (0-1)
  Post-operative morphine, mean ± SD: 0.09 ± 0.05 mg/Kf
  Prolonged PACU stay due to pain, number of cases (%): 22 (33)
[3]
  Analgesic intervention need in PACU, number of cases (%): 5 (100)
  Maximum FLACC pain score, median (IQR): 3 (3-4)
  Maximum NRS pain score, median (IQR): 8 (6-10)
  Number of analgesic interventions, median (IQR): 1 (1-2)
  Post-operative morphine, mean ± SD: 0.07 ± 0.03 mg/Kf
  Prolonged PACU stay due to pain, number of cases (%): 3 (60)
M, All
  Analgesic intervention need in PACU, number of cases: 61
  Analgesic intervention need in PACU, proportion: (28%)
  Maximum FLACC pain score, median: 2
  Maximum NRS pain score, median: 5
  Number of analgesic interventions, median: 1
  Post-operative morphine, mean ± SD: 0.09 ± 0.05 mg/kg
  Prolonged PACU stay due to pain, number of cases: 36
  Prolonged PACU stay due to pain, proportion: (16%)
M, OSA No
  Analgesic intervention need in PACU, number of cases: 35
  Analgesic intervention need in PACU, proportion: (28%)
  Maximum FLACC pain score, median: 2
  Maximum NRS pain score, median: 6
  Number of analgesic interventions, median: 1
  Post-operative morphine, mean ± SD: 0.09 ± 0.05 mg/kg
  Prolonged PACU stay due to pain, number of cases: 24
  Prolonged PACU stay due to pain, proportion: (19%)
M, OSA Yes
  Analgesic intervention need in PACU, number of cases: 26
  Analgesic intervention need in PACU, proportion: (27%)
  Maximum FLACC pain score, median: 4
  Maximum NRS pain score, median: 5
  Number of analgesic interventions, median: 1
  Post-operative morphine, mean ± SD: 0.09 ± 0.05 mg/kg
  Prolonged PACU stay due to pain, number of cases: 12
  Prolonged PACU stay due to pain, proportion: (13%)
[4]
  Analgesic intervention need in PACU, number of cases (%): 20 (54)
  Maximum FLACC pain score, median (IQR): 2 (0-5)
  Maximum NRS pain score, median (IQR): 6 (4-7)
  Number of analgesic interventions, median (IQR): 1 (0-1)
  Post-operative morphine, mean ± SD: 0.09 ± 0.05 mg/Kf
  Prolonged PACU stay due to pain, number of cases (%): 12 (32)
[5]
  Analgesic intervention need in PACU, number of cases (%): 36 (58)
  Maximum FLACC pain score, median (IQR): 3 (1-7)
  Maximum NRS pain score, median (IQR): 5 (2-8)
  Number of analgesic interventions, median (IQR): 1 (0-1)
  Post-operative morphine, mean ± SD: 0.10 ± 0.05 mg/Kf
  Prolonged PACU stay due to pain, number of cases (%): 22 (35)
[6]
  Analgesic intervention need in PACU, number of cases (%): 5 (83)
  Maximum FLACC pain score, median (IQR): 3 (1-5)
  Maximum NRS pain score, median (IQR): 6 (5-9)
  Number of analgesic interventions, median (IQR): 1 (1-2)
  Post-operative morphine, mean ± SD: 0.07 ± 0.04 mg/Kf
  Prolonged PACU stay due to pain, number of cases (%): 2 (33)
Univariate or multivariate modeling
  sex-specific morphine effects on analgesic outcomes: no evidence of sex-specific morphine effects
